We go through 6 compounds from US20070249706A1, “USE OF CERTAIN BIPHENYL COMPOUNDS FOR PROTECTION OF NEURONS AND OLIGODENDROCYTES IN THE TREATMENT OF MULTIPLE SCLEROSIS (MS)” (AVENTIS PHARMACEUTICALS INC., priority 2004, published 2007).

For test [1], the target named is T1, ERα (Homo sapiens, UniProt P03372).
T1 construct: purchased Panvera P2698
T1 sequence (P03372 1-595): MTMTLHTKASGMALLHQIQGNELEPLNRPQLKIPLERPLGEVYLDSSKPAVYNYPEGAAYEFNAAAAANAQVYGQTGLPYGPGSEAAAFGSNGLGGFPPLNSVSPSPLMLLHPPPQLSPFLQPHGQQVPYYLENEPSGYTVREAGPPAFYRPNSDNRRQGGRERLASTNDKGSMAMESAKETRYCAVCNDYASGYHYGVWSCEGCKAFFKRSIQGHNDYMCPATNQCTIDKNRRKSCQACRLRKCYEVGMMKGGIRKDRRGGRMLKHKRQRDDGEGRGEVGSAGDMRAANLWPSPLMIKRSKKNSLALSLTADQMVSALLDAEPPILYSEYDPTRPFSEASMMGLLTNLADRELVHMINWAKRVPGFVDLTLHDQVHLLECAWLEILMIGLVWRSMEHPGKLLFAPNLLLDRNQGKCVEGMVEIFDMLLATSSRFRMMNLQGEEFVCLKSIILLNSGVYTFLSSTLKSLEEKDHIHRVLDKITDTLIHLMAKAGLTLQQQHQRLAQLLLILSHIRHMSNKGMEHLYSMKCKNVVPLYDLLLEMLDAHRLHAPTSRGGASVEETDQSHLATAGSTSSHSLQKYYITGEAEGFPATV
Kind of test: Fluorescence Polarization Competition Assay, ERα binding (Panvera kit). Particulars: first ER column. How it is done:
(§1) A number of compounds were tested for ERα and ERβ binding using Panvera's Fluorescence Polarization Competition Assay Kits (cat. nos. P2698 and P2700). Briefly, ERα or ERβ were thawed on ice from −80° C. An estrogen receptor and fluorescent ligand (Fluormone™) complex was formed at a 15/1 molar ratio for ERα and at a 10/1 molar ratio for ER≈ (2X complex). Serial dilutions of the test compounds were made in assay buffer and the assay was initiated by adding 50 ul of the 2X receptor-ligand complex to 50 ul of compound solution in black 96-well plates. Zero percent competition (theoretical maximum polarization) was measured in wells containing 50 ul of buffer and 50 ul of the 2X receptor-ligand complex. The plates were incubated after gentle shaking in the dark at room temperature. Polarization values (mP) were read no longer than 7 hours after the reaction was started with a FARCyte Fluorescent reader (Amersham) at excitation and emission wavelengths of 485 nm and 535 nm, respectively. Data was analyzed using non-linear regression and IC50 values determined using GraphPad Prism. Estradiol was used as the reference compound.

Test [2] has as its target T2, ERβ (Homo sapiens, UniProt Q92731).
T2 construct: purchased Panvera P2700
Put plainly: Fluorescence Polarization Competition Assay, ERβ binding (Panvera kit). As to conditions: for IC50: ER, fluorescence polarization competition; for ER[…] selectivity Fold Diff: ratio of the two ER binding IC50 values. How it is done:
as §1

The test system of test [3] is primary rat oligodendrocyte progenitor cells. Kind of test: Oligodendrocyte toxicity assay, protection of oligodendrocyte progenitors (OLP) against SIN-1, LDH release. Particulars: 10 nM compound, 1 hour pretreatment, SIN-1 toxin, LDH after 24 hours. The test is classed as cell-based. How it is done: (§2) Oligodendrocyte Toxicity Assay
(§3) Primary rat oligodendrocyte progenitor cells were obtained from the cerebra of 2-3 day old postnatal rats (Sprague Dawley). The meninges were removed and tissue was mechanically dissociated. Cells were plated on T75 flasks and fed with DMEM +10% FBS.
(§4) Enriched OLPs were collected by mechanical separation from the astrocytic monolayer and were expanded in serum free media (SFM) supplemented with the mitogens, PDGF-AA (10 ng/mI) and FGF-2 (10 ng/mI).
(§5) Cells were plated in 96-well plates, 10,000 per well. Medium was changed to fresh medium and cells were pretreated with compounds for 1 hour. Toxins were added to give the following final concentrations: Sin-10 mM, Camptothecin 1 OM
(§6) After 24 hours, medium was removed and assayed for LDH activity using the Promega cytotox 96 kit (catalog# G1780). Results were calculated as percent protection against toxin-induced toxicity.
(§7) These compounds have been assessed for their efficacy in protection against cell death produced by toxic agents such as SIN-1 (3-morpholino-sydnonimine, producing peroxynitrite) and camptothecin. The target cells assessed in vitro are primary cultures of rodent oligodendrocyte progenitors and their mature counterparts.

In test [4] the test system is mature oligodendrocytes. Put plainly: Oligodendrocyte toxicity assay, protection of mature oligodendrocytes (OL) against SIN-1, LDH release. The format is cell-based, rat. As to conditions: 10 nM compound, 1 hour pretreatment, SIN-1 toxin, LDH after 24 hours. As for the experimental part: as §2, §3, §4
To generate mature oligodendrocytes, progenitor cells were switched to SFM supplemented with IGF-1 (10 ng/mi) 24 hours after plating and cells were grown under these conditions for 7 days prior to experimental assays.
as §5, §6, §7

T2 sequence (Q92731 whole entry): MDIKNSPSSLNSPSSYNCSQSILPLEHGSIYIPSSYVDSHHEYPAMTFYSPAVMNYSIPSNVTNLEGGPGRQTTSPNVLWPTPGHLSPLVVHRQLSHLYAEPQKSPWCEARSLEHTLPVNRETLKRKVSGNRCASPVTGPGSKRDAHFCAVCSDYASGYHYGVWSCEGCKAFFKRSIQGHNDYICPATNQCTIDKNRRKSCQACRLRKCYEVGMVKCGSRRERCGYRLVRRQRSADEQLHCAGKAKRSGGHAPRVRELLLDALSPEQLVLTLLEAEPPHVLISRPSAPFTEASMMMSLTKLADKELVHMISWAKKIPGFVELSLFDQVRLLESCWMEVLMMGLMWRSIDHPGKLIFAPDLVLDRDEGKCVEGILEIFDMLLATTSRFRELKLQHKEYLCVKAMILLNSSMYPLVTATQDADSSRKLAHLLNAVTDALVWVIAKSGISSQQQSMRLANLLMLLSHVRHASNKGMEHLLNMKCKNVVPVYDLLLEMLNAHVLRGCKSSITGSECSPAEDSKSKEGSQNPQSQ

The compound `OCc1cc(Br)c(-c2ccc(O)cc2)c(Br)c1` [2,6-dibromo-4′-hydroxy-[1,1′-biphenyl]-4-methanol] showed a concentration for half-maximal inhibition (IC50) in test [1] of 0.06 µM. In addition, in test [2], the IC50 stood at 0.009 µM and the “ER[…] selectivity Fold Diff” value is recorded as 7 Fold. In addition, the “% Protection (SIN-1*) OLP 10 nM” value in test [3] is reported as 51%. The “% Protection (SIN-1*) OL 10 nM” value in test [4] came out at 11%.
Regarding `OCc1cc(Cl)c(-c2ccc(O)cc2)c(Cl)c1` [2,6-dichloro-4′-hydroxy-[1,1′-biphenyl]-4-methanol], the IC50 in test [1] came to 0.093 µM. Also, in test [2], the IC50 is 0.018 µM and the “ER[…] selectivity Fold Diff” value is 5 Fold. Also, the “% Protection (SIN-1*) OLP 10 nM” value in test [3] was 36%. The “% Protection (SIN-1*) OL 10 nM” value in test [4] stood at 6%.
The corresponding values for `OCc1cc(Br)c(-c2ccc(O)cc2)c(-n2cccc2)c1` [2-bromo-4′-hydroxy-6-(1H-pyrrol-1-yl)-1,1′-biphenyl]-4-methanol] are 0.408 µM, 0.015 µM, 27 Fold, 10% and 15%.
`O=[N+]([O-])c1cc(CO)cc(Br)c1-c1ccc(O)cc1` [2-bromo-4′-hydroxy-6-nitro-[1,1′-biphenyl]-4-methanol]: the IC50 in test [1] turned out to be 0.125 µM; in test [2] it was 0.008 µM. In addition, the “ER[…] selectivity Fold Diff” value in test [2] was 16 Fold. Moreover, in test [3], the “% Protection (SIN-1*) OLP 10 nM” value was 16%. Moreover, the “% Protection (SIN-1*) OL 10 nM” value in test [4] was 12%.
The corresponding values for `OCc1cc(Br)c(-c2ccc(O)cc2)c(-c2ccoc2)c1` [2-bromo-6-(furan-3-yl)-4′-hydroxy-[1,1′-biphenyl]-4-methanol] are 0.157 µM, 0.006 µM, 25 Fold, 37% and 16%.
The corresponding values for `CN(C)c1cc(CO)cc(Br)c1-c1ccc(O)cc1` [2-bromo-6-dimethylamino-4′-hydroxy-[1,1′-biphenyl]-4-methanol] are 0.42 µM, 0.037 µM, 11 Fold, 45% and 12%.
